In patent US11242337B2, “Compounds useful for treating gastrointestinal tract disorders” (Ardelyx, Inc., priority 2017, dated 2022):

How the values were obtained:
[1] = molecular target: T1, NHE3 (Homo sapiens, UniProt P48764); test: Cell-based assay of NHE-3 activity (persistent inhibition), human; settings: human Persistence, 60 min incubation then washout
T1 construct: expressed in transfected cells
T1 sequence (P48764 26-834): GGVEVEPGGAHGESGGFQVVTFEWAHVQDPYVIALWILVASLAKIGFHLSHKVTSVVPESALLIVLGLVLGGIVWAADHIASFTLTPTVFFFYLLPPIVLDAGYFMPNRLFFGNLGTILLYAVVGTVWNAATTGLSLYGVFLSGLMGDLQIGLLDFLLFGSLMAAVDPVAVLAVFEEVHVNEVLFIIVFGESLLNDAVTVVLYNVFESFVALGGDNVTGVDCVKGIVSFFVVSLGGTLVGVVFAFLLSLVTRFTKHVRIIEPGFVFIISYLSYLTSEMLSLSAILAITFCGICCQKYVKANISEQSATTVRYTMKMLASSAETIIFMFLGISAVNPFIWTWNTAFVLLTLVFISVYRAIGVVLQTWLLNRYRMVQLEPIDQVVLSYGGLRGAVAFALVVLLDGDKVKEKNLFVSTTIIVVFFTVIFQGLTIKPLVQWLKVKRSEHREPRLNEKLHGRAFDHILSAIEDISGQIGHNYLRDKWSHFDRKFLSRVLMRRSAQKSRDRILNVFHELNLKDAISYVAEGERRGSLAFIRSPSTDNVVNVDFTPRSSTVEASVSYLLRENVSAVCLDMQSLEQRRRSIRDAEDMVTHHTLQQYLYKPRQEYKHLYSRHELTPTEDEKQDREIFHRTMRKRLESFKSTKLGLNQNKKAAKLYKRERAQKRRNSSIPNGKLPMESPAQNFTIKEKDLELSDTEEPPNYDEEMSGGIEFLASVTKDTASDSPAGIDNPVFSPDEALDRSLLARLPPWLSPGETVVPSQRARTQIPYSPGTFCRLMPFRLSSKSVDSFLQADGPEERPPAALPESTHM
T1 sequence (Q99653 2-195 partner limits assumed): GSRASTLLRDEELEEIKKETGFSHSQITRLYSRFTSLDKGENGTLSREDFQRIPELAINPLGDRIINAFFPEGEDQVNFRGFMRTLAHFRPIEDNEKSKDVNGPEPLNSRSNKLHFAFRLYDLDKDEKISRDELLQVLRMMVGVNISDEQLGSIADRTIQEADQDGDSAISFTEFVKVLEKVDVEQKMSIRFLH
Procedure, shortened: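 PS120 fibroblasts expressing human NHE3 with NHERF2 exposed to 0-30 μM compound for 60 min at RT, then washed out; cells acid-loaded by NH4Cl prepulse with BCECF-AM and Na+-free buffer. Na+-driven pH recovery started 10 min post-washout; initial rate of BCECF ratio change (FLIPR) taken as activity.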

[2] = molecular target: T1, NHE3; test: Cell-based assay of NHE-3 activity (pre-incubation inhibition), human; settings: human Preincubation
Procedure, shortened: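 PS120 fibroblasts stably expressing human NHE3 and NHERF2, loaded 30 min at 37 °C with 5 μM BCECF-AM in NH4Cl buffer, then acidified 10 min at room temperature in Na+-free buffer with 0–30 μM compound. Initial rate of BCECF fluorescence ratio change (FLIPR) per minute taken as Na+/H+ activity.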

Row | Structure (SMILES) | % inhibition [1] | pIC50 [1] | % inhibition [2] | pIC50 ([2]; 0-30 μM test compound) | IC50 [1] [nM] | IC50 ([2]; 0-30 μM test compound) [nM]
1 | Cc1cc(S(=O)(=O)N[C@H]2CCN(CCOCCNC(=O)NCCCCNC(=O)NCCOCCN3CC[C@H](NS(=O)(=O)c4ccc(O[C@H]5c6cc(Cl)cc(C)c6C[C@@H]5N5CCC[C@@H](N(C)C)C5)c(C)c4)C3)C2)ccc1O[C@H]1c2cc(Cl)cc(C)c2C[C@@H]1N1CCC[C@@H](N(C)C)C1 [Example 114, 4-([(1S,2S)-6-Chloro-2-[(R)-3-(dimethylamino)piperidin-1-yl]-4-methyl-2,3-dihydro-1H-inden-1-yl]oxy)-N—[(S)-1-(20-[(S)-3-([4-([(1S,2S)-6-chloro-2-[(R)-3-(dimethylamino)piperidin-1-yl]-4-methyl-2,3-dihydro-1H-inden-1-yl]oxy)-3-methylphenyl]sulfonamido)pyrrolidin-1-yl]-7,14-dioxo-3,18-dioxa-6,8,13,15-tetraazaicosyl)pyrrolidin-3-yl]-3-methylbenzenesulfonamide; tetra(trifluoroacetate)] | C (>70%) | C (NHE3 pIC50 > 7) | C (>70%) | C (NHE3 pIC50 > 7) |  | 
2 | CN(C)[C@@H]1CCCN([C@H]2Cc3c(C#N)cc(Cl)cc3[C@@H]2Oc2ccc(S(=O)(=O)NCCOCCOCCNC(=O)NCCCCNC(=O)NCCOCCOCCNS(=O)(=O)c3ccc(O[C@H]4c5cc(Cl)cc(C#N)c5C[C@@H]4N4CCC[C@@H](N(C)C)C4)cc3)cc2)C1 [Example 121, 4-([(1S,2S)-6-Chloro-4-cyano-2-[(R)-3-(dimethylamino)piperidin-1-yl]-2,3-dihydro-1H-inden-1-yl]oxy)-N-[26-([4-([(1S,2S)-6-chloro-4-cyano-2-[(R)-3-(dimethylamino)piperidin-1-yl]-2,3-dihydro-1H-inden-1-yl]oxy)phenyl]sulfonamido)-10,17-dioxo-3,6,21,24-tetraoxa-9,11,16,18-tetraazahexacosyl]benzenesulfonamide] | A (NHE3 < 40%) | C (NHE3 pIC50 > 7) | B (40-70%) | C (NHE3 pIC50 > 7) |  | 
3 | N#Cc1cc(Cl)cc2c1C[C@H](N1CCNCC1)[C@H]2Oc1ccc(S(=O)(=O)NC(=O)CCCNC(=O)NCCCCNC(=O)NCCCC(=O)NS(=O)(=O)c2ccc(O[C@H]3c4cc(Cl)cc(C#N)c4C[C@@H]3N3CCNCC3)cc2)cc1 [Example 124, N^1,N^18-Bis([4-([(1S,2S)-6-chloro-4-cyano-2-(piperazin-1-yl)-2,3-dihydro-1H-inden-1-yl]oxy)phenyl]sulfonyl)-6,13-dioxo-5,7,12,14-tetraazaoctadecanediamide] | C (>70%) |  | C (>70%) | C (NHE3 pIC50 > 7) | 100 to 1000 | 
4 | N#Cc1cc(Cl)cc2c1C[C@H](N1CCCNCC1)[C@H]2Oc1ccc(S(=O)(=O)N[C@@H]2CCN(CCOCCNC(=O)NCCCCNC(=O)NCCOCCN3CC[C@@H](NS(=O)(=O)c4ccc(O[C@H]5c6cc(Cl)cc(C#N)c6C[C@@H]5N5CCCNCC5)cc4)C3)C2)cc1 [Example 127, 4-([(1S,2S)-6-Chloro-4-cyano-2-(1,4-diazepan-1-yl)-2,3-dihydro-1H-inden-1-yl]oxy)-N—[(R)-1-(20-[(R)-3-([4-([(1S,2S)-6-chloro-4-cyano-2-(1,4-diazepan-1-yl)-2,3-dihydro-1H-inden-1-yl]oxy)phenyl]sulfonamido)pyrrolidin-1-yl]-7,14-dioxo-3,18-dioxa-6,8,13,15-tetraazaicosyl)pyrrolidin-3-yl]benzenesulfonamide; bis(trifluoroacetic acid)] | A (NHE3 < 40%) |  | C (>70%) |  | < 100 | < 100

The remaining lines, values ahead:

Row | % inhibition [1] | pIC50 [1] | % inhibition [2] | pIC50 ([2]; 0-30 μM test compound) | IC50 [1] [nM] | IC50 ([2]; 0-30 μM test compound) [nM] | Structure (SMILES)
5 | A (NHE3 < 40%) | C (NHE3 pIC50 > 7) | A (NHE3 < 40%) | A (NHE3 pIC50 < 6) |  |  | CN1CCCN([C@H]2Cc3c(C#N)cc(Cl)cc3[C@@H]2Oc2ccc(S(=O)(=O)N[C@H]3CCN(CCOCCNC(=O)NCCCCNC(=O)NCCOCCN4CC[C@H](NS(=O)(=O)c5ccc(O[C@H]6c7cc(Cl)cc(C#N)c7C[C@@H]6N6CCCN(C)CC6)cc5)C4)C3)cc2)CC1 [Example 128, 4-([(1S,2S)-6-Chloro-4-cyano-2-(4-methyl-1,4-diazepan-1-yl)-2,3-dihydro-1H-inden-1-yl]oxy)-N—[(S)-1-(20-[(S)-3-([4-([(1S,2S)-6-chloro-4-cyano-2-(4-methyl-1,4-diazepan-1-yl)-2,3-dihydro-1H-inden-1-yl]oxy)phenyl]sulfonamido)pyrrolidin-1-yl]-7,14-diaxo-3,18-dioxa-6,8,13,15-tetraazaicosyl)pyrrolidin-3-yl]benzenesulfonamide]
6 | A (NHE3 < 40%) | C (NHE3 pIC50 > 7) | A (NHE3 < 40%) | A (NHE3 pIC50 < 6) |  |  | CN1CCCN([C@H]2Cc3c(C#N)cc(Cl)cc3[C@@H]2Oc2ccc(S(=O)(=O)N[C@@H]3CCN(CCOCCNC(=O)NCCCCNC(=O)NCCOCCN4CC[C@@H](NS(=O)(=O)c5ccc(O[C@H]6c7cc(Cl)cc(C#N)c7C[C@@H]6N6CCCN(C)CC6)cc5)C4)C3)cc2)CC1 [Example 129]
7 | C (>70%) |  | B (40-70%) | C (NHE3 pIC50 > 7) | 100 to 1000 |  | N#Cc1cc(Cl)cc2c1C[C@H](N1C[C@@H]3C[C@H]1CN3)[C@H]2Oc1ccc(S(=O)(=O)N[C@H]2CCN(CCOCCNC(=O)NCCCCNC(=O)NCCOCCN3CC[C@H](NS(=O)(=O)c4ccc(O[C@H]5c6cc(Cl)cc(C#N)c6C[C@@H]5N5C[C@@H]6C[C@H]5CN6)cc4)C3)C2)cc1 [Example 130, 4-([(1S,2S)-2-[(1S,4S)-2,5-Diazabicyclo[2.2.1]heptan-2-yl]-6-chloro-4-cyano-2,3-dihydro-1H-inden-1-yl]oxy)-N—[(S)-1-(20-[(S)-3-[(4-([(1S,2S)-2-[(1S,4S)-2,5-diazabicyclo[2.2.1]heptan-2-yl]-6-chloro-4-cyano-2,3-dihydro-1H-inden-1-yl]oxy)phenyl]sulfonamido)pyrrolidin-1-yl]-7,14-dioxo-3,18-dioxa-6,8,13,15-tetraazaicosyl)pyrrolidin-3-yl]benzenesulfonamide; bis(trifluoroacetic acid)]
8 | C (>70%) |  | C (>70%) | C (NHE3 pIC50 > 7) | 100 to 1000 |  | N#Cc1cc(Cl)cc2c1C[C@H](N1C[C@@H]3C[C@H]1CN3)[C@H]2Oc1ccc(S(=O)(=O)N[C@@H]2CCN(CCOCCNC(=O)NCCCCNC(=O)NCCOCCN3CC[C@@H](NS(=O)(=O)c4ccc(O[C@H]5c6cc(Cl)cc(C#N)c6C[C@@H]5N5C[C@@H]6C[C@H]5CN6)cc4)C3)C2)cc1 [Example 131, 4-([(1S,2S)-2-[(1S,4S)-2,5-Diazabicyclo[2.2.1]heptan-2-yl]-6-chloro-4-cyano-2,3-dihydro-1H-inden-1-yl]oxy)-N—[(R)-1-(20-[(R)-3-([4-([(1S,2S)-2-[(1S,4S)-2,5-diazabicyclo[2.2.1]heptan-2-yl]-6-chloro-4-cyano-2,3-dihydro-1H-inden-1-yl]oxy)phenyl]sulfonamido)pyrrolidin-1-yl]-7,14-dioxo-3,18-dioxa-6,8,13,15-tetraazaicosyl)pyrrolidin-3-yl]benzenesulfonamide; bis(trifluoroacetic acid)]
